Measurements published in patent publication US20260055108A1, “TRIAZINE COMPOUNDS AND USES THEREOF” (HUTCHMED LIMITED, priority 2022, published 2026).

Key:
[1] = target: Recombinant human Menin protein (2-610) / MLL polypeptide binding (Homo sapiens (Human), UniProt O00255); assay: Menin and MLL protein binding at a molecular level (fluorescence polarization method); conditions: inhibition of Menin / MLL polypeptide binding
How it was run: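 Binding of recombinant human Menin (2-610) to 6-FAM-labelled MLL peptide measured by fluorescence polarization (ex 480/em 535 nm) in Tris/NaCl/TCEP buffer, pH 7.5, 2% DMSO. Compound preincubated with Menin 30 min at room temperature, then peptide added for 30 min in the dark. Tested at 1.000 down to 0.0005 μM final.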

[2] = test system: MV-4-11 cells (human acute myelogenous leukemia cell line carrying MLL-AF4 mutation); assay: Cell proliferation assay, MV-4-11 (CellTiter-Glo); format: cell-based; conditions: Homo sapiens, MV4-11, 72 h, MV-4-11 cells, 3 days treatment, CellTiter-Glo; read-out: GI50
How it was run: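 MV-4-11 cells (3000/well, IMDM with 10% HIFBS and 50 μM β-mercaptoethanol) exposed to compound at 1.100–0.001 μM final, 0.1% DMSO, for 3 days at 37°C. Viability read by CellTiter-Glo luminescence on day 0 and day 3, normalised to day-0 and untreated wells.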

Recombinant human Menin protein (2-610) / MLL polypeptide binding, sequence (O00255 2-610): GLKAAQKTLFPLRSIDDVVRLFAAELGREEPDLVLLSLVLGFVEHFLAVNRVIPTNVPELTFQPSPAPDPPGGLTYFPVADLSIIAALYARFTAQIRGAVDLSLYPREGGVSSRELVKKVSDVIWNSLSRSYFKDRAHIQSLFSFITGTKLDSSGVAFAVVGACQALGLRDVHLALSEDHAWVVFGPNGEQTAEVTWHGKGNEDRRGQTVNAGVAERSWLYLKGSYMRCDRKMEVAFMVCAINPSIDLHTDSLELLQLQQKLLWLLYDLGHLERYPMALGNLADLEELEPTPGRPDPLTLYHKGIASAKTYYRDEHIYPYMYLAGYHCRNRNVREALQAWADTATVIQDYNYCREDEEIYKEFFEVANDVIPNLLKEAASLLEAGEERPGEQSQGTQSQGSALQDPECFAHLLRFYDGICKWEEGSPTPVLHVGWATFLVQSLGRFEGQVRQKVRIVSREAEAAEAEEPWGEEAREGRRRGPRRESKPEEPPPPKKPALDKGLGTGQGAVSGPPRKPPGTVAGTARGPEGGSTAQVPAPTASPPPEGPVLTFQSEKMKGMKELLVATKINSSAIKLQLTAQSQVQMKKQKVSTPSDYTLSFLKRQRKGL

Row | Structure (SMILES) | IC50 [1] | GI50 [2]
1 | COc1cc(N2CCC(CN3CCC4(CC3)CN(c3ncnnc3Oc3ccc(F)cc3-c3ccnn3C(C)C)C4)CC2)nnc1OC [Compound 101] | 0.9 nM | 2 nM
2 | CCOc1cc(N2CCC(CN3CCC4(CC3)CN(c3ncnnc3Oc3ccc(F)cc3C(=O)N(CC)C(C)C)C4)CC2)nnc1OCC [Compound 95] | 3.2 nM | 9 nM
3 | CCN(C(=O)c1cc(F)ccc1Oc1nncnc1N1CC2(CCN(CC3CCN(c4cnnc(OC)c4)CC3)CC2)C1)C(C)C [Compound 109] | 7.4 nM | 6 nM
4 | CCN(C(=O)c1cc(F)ccc1Oc1nncnc1N1CC2(CCN(CC3CCN(C(=O)Nc4ccccn4)CC3)CC2)C1)C(C)C [Compound 37] | 13.7 nM | 23 nM

Next, values leading:

Row | IC50 [1] | GI50 [2] | Structure (SMILES)
5 | 124 nM | 126 nM | CCNC(=O)c1cc(F)ccc1Oc1nncnc1N1CC2(CCN(CC3CCN(c4cc(OC)c(OC)nn4)CC3)CC2)C1 [Compound 178, 2-((5-(7-((1-(5,6-dimethoxypyridazin-3-yl)piperidin-4-yl)methyl)-2,7-diazaspiro[3.5]nonan-2-yl)-1,2,4-triazin-6-yl)oxy)-N-ethyl-5-fluorobenzamide]
6 | 2.6 nM | 7 nM | CCN(C(=O)c1cc(F)ccc1Oc1nncnc1N1CC2(CCN(CC3CCN(c4cccnn4)CC3)CC2)C1)C(C)C [Compound 166]
7 | 1.3 nM | 2 nM | C#Cc1ccc(N2CCC(CN3CCC4(CC3)CN(c3ncnnc3Oc3ccc(F)cc3C(=O)N(CC)C(C)C)C4)CC2)nn1 [Compound 134]
8 | > 200 nM | 585 nM | CCN(C(=O)c1cc(F)ccc1Oc1nncnc1N1CC2(CCN(CC3CCC(O)(c4ccccn4)CC3)CC2)C1)C(C)C (stereo not drawn) [Compound 125]
9 | 166 nM | 108 nM | CCN(C(=O)c1cc(F)ccc1Oc1nncnc1N1CC2(CCN(CC3CCN(C(=O)c4cnn5cccnc45)CC3)CC2)C1)C(C)C [Compound 169, N-ethyl-5-fluoro-N-isopropyl-2-((5-(7-((1-(pyrazolo[1,5-a]pyrimidine-3-carbonyl)piperidin-4-yl)methy)-2,7-diazaspiro[3.5]nonan-2-yl)-1,2,4-triazin-6-yl)oxy)benzamide]
